Article PMC2631625 (Bioorganic & medicinal chemistry letters, 2008)

Molecular target: CB1 receptors (Rattus norvegicus, UniProt P20272)
Test: Inhibition of [3H]SR141716 binding in homogenates of rat cerebellum
Details: [3H]SR141716 radioligand

Sequence of CB1 receptors (P20272 whole entry): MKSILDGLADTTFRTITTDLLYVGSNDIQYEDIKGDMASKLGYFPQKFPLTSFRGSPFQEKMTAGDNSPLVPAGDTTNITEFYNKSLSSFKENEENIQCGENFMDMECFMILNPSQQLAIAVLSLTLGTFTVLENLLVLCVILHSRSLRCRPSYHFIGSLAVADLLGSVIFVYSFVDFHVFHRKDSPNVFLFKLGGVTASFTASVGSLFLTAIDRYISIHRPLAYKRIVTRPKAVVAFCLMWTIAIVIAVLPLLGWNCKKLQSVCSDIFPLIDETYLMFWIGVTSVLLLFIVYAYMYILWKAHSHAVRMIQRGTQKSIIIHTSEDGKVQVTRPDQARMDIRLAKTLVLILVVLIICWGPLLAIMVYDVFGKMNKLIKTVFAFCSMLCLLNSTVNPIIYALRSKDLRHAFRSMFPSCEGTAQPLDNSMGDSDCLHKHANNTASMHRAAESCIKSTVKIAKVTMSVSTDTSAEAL

| SMILES | binding affinity at CB1 receptors (in words) |
| --- | --- |
| O=C(NN1CCCCC1)c1nnn(-c2ccc(Cl)cc2)c1-c1ccc(Cl)cc1 [Compound 9] | low affinity |
| O=C(OCc1ccccc1)c1nnn(-c2ccc(Cl)cc2Cl)c1-c1ccc(Cl)cc1 [Compound 15] | somewhat diminished |
| Clc1ccc(-c2cnnn2-c2ccc(Cl)cc2Cl)cc1 [Compound 7b] | low affinity |
| Clc1ccc(-c2cnnn2-c2ccc(Cl)cc2)cc1 [Compound 7a] | low affinity |
